Earlier results on two compounds are cited in patent publication US8445670B2, “Combinatorial library approach to iminocyclitols with biological activity” (United Therapeutics Corporation, priority 2005, dated 2013).

What is called IC50 is the concentration needed to halve the response being measured.

SMILES strings stand for the structures.

The test system of this data set is bovine viral diarrhoea virus (BVDV). Conditions: reference DNJ derivatives, values given with literature references.

As for `CCCCCCCCCN1C[C@H](O)[C@@H](O)[C@H](O)[C@H]1CO` [N-n-nonyl DNJ], the IC50 was 10 µM. For `CCCCN1C[C@H](O)[C@@H](O)[C@H](O)[C@H]1CO` [N-n-butyl DNJ], the concentration for half-maximal inhibition (IC50) is 125 µM.
